Measured values as given in US20220256847A1, “CELL DEATH INHIBITOR AND CELL DEATH INHIBITION METHOD” (UNIVERSITY OF TSUKUBA, priority 2019, published 2022).

What was measured:
Format in all cases: in vivo
[1] = system: leaves of Nicotiana benthamiana; test: Observation of gangrene (cell death induced by transient protein expression) in leaves after agroinfiltration and spraying of the substance
Method: Nicotiana benthamiana was grown for 5 to 6 weeks under conditions of 25° C. and 16 hours in light and 8 hours in the dark. Each of the above-described vectors was introduced into an Agrobacterium tumefaciens GV3101 strain having a binary vector, and it was cultured at 28° C. until the stationary phase in L broth medium supplemented with 20 μM acetosyringone, 50 mg/L kanamycin, 30 mg/L gentamicin, and 30 mg/L rifampicin at 10 mM MES (pH 5.6).
Then, the culture solution was centrifuged to recover the Agrobacterium tumefaciens, and then suspended such that OD600 was approximately 1 by using an infiltration buffer (10 mM magnesium chloride, 10 mM MES, (pH 5.6), and 100 μM acetosyringone). The Agrobacterium tumefaciens was then left in this liquid for 2 to 3 hours.
After this, the suspension of Agrobacterium tumefaciens was infiltrated on the underside of the leaves of Nicotiana benthamiana by using a 1 mL syringe without a needle. Alternatively, in some cases, Nicotiana benthamiana was immersed in the Agrobacterium suspension (agroinfiltration liquid), and vacuum infiltrated by leaving it under a pressure of 736 mmHg for 5 minutes, and then bringing the pressure back to atmospheric pressure.
In addition, in some experiments, sodium ascorbate was added to the infiltration buffer. Expression induction of heat shock protein was performed by incubating the plant for 1 hour at 37° C. one day and three days after the infiltration. In the following Example, sodium L-ascorbate was used as sodium ascorbate.
Agroinfiltration using a syringe was performed to express GFP, hCu1, hFbxw7, PLP-GFP, and Cryj1 in the leaves of Nicotiana benthamiana. In the expression of PLP-GFP, a 1/100 amount of pBYR2HS-EGFP was simultaneously agroinfitrated. Each plant was cultured at 18° C. for seven days after agroinfiltration. In addition, 0, 30, 50, 100, 200, and 300 mM aqueous solutions of sodium ascorbate were sprayed once every two days.
The scale bar indicates 1 cm. […] In (a) to (f), the region surrounded by the dotted circle is a region expressing GFP, hCu1, hFbxw7, PLP-GFP, and Cryj1, respectively.
Agroinfiltration using a syringe was performed to express each of GFP, hCu1, and hFbxw7 in the leaves of Nicotiana benthamiana. Each plant was cultured at 25° C. for seven days after agroinfiltration. In addition, a 0 or 200 mM aqueous solution of sodium ascorbate was sprayed once every two days. The present Example was mainly different from Example 1 in the growth temperatures of the plant.
The scale bar indicates 1 cm.
Each plant was cultured at 18° C. for seven days after agroinfiltration.
Specifically, Nicotiana benthamiana was immersed in the agroinfiltration liquid, and vacuum infiltrated by leaving it under a pressure of 736 mmHg for 5 minutes, and then bringing the pressure back to atmospheric pressure, and thus the hFbxw7 protein was expressed. Each plant was cultured at 20° C. for seven days after agroinfiltration. In addition, 1 mM of each endoplasmic reticulum stress inhibitor was sprayed one day and three days after agroinfiltration.

[2] = system: GFP protein expressed in the leaves of Nicotiana benthamiana; test: GFP protein expression level, SDS-PAGE and CBB staining of soluble leaf protein
[3] = system: hCu1 protein expressed in the leaves of Nicotiana benthamiana; test: hCu1 protein expression level, Western blotting with anti-FLAG antibody
Text: (§1) The soluble protein was then extracted from the region where the hCu1 protein was expressed in the leaves of each plant. The prepared soluble protein was then subjected to SDS-PAGE and transferred to a PVDF membrane. As described above, a FLAG tag was attached to the N-terminus of the hCu1 protein. Here, the hCu1 protein was detected by Western blotting with an anti-FLAG antibody.
FIG. 4A is a photograph showing the results of Western blotting. In FIG. 4A, “NT” indicates the results of the leaves of Nicotiana benthamiana without gene introduction, and “FW” indicates fresh weight. In FIG. 4A, the band indicated by the arrowhead indicates the band of the hCu1 protein. FIG. 4B is a graph showing the results of quantifying the expression level of the hCu1 protein based on FIG. 4A. […]
as §1, with “the” for “the region where the hCu1 protein was expressed in the”, “plant seven days after agroinfiltration.” for “plant.”
FIG. 13A is a photograph showing the results of Western blotting, and also illustrates the results of CBB staining. In FIG. 13A, “NT” indicates the results of the leaves of Nicotiana benthamiana without gene introduction, and “FW” indicates fresh weight. In addition, “vacuum” indicates the result of performing the vacuum infiltration, and “spray” indicates the result of spraying an aqueous solution of sodium ascorbate without adding sodium ascorbate to the agroinfiltration liquid. In addition, the band indicated by the arrowhead indicates the band of the hCu1 protein. In addition, “RbcL” indicates the Rubisco large subunit.
FIG. 13B is a graph showing the results of quantifying the expression level of the hCu1 protein based on FIG. 13A. In FIG. 13B, “vacuum” and “spray” indicate the same meaning as those in FIG. 13A.

[4] = system: PLP-GFP protein expressed in the leaves of Nicotiana benthamiana; test: PLP-GFP protein expression level, Western blotting with anti-GFP antibody; settings: Example 1: spray, concentration of 100 mM or higher, once every two days; 18° C., seven days
Method: The soluble protein was then extracted from the region where the PLP-GFP protein was expressed in the leaves of each plant. The prepared soluble protein was then subjected to SDS-PAGE and transferred to a PVDF membrane. For comparison, 100 ng, 200 ng, and 300 ng of purified GFP proteins were also subjected to SDS-PAGE and transferred to a PVDF membrane. Then, the PLP-GFP protein was detected by Western blotting with an anti-GFP antibody. FIG. 5A is a photograph showing the results of Western blotting. In FIG. 5A, “NT” indicates the results of the leaves of Nicotiana benthamiana without gene introduction, and “FW” indicates fresh weight. In FIG. 5A, the band indicated by the arrowhead indicates the band of the PLP-GFP protein. In addition, the band near 30 kDa is the band of the GFP protein. FIG. 5B is a graph showing the results of quantifying an expression level of the PLP-GFP protein based on FIG. 5A.

[5] = system: hFbxw7 protein expressed in the leaves of Nicotiana benthamiana; test: hFbxw7 protein expression, Western blotting with anti-FLAG antibody; settings: Example 2: 200 mM spray; 25° C.; three days after agroinfiltration
Text: The soluble protein was extracted from the region where the hFbxw7 protein was expressed in the leaves of each plant three days after agroinfiltration. The prepared soluble protein was then subjected to SDS-PAGE and transferred to a PVDF membrane. As described above, a FLAG tag was attached to the N-terminus of the hFbxw7 protein. Here, the hFbxw7 protein was detected by Western blotting with an anti-FLAG antibody. FIG. 9 is a photograph showing the results of Western blotting. FIG. 9 also illustrates the results of CBB staining. In FIG. 9, “NT” indicates the results of the leaves of Nicotiana benthamiana without gene introduction, and “FW” indicates fresh weight. In addition, “Mock” indicates the result of not spraying an aqueous solution of sodium ascorbate, and “AsA” indicates the result of spraying a 200 mM aqueous solution of sodium ascorbate. In addition, the band indicated by the arrowhead indicates the band of the hFbxw7 protein. In addition, “RbcL” indicates the Rubisco large subunit.

[6] = system: Cryj1 protein expressed in the leaves of Nicotiana benthamiana; test: Cryj1 protein expression, Western blotting with anti-Cryj1 antibody; settings: Example 8: 200 mM spray once every two days; vacuum infiltration; 24° C. or 20° C., seven days
Method: Nicotiana benthamiana was immersed in the agroinfiltration liquid, and vacuum infiltrated by leaving it under a pressure of 736 mmHg for 5 minutes, and then by bringing the pressure back to atmospheric pressure, and thus the Cryj1 protein was expressed. Each plant was cultured at 24° C. or 20° C. for seven days after agroinfiltration. In addition, a 0 mM or 200 mM aqueous solution of sodium ascorbate was sprayed once every two days.
The soluble protein was then extracted from the leaves of each plant seven days after agroinfiltration. The prepared soluble protein was then subjected to SDS-PAGE and transferred to a PVDF membrane. Then, the Cryj1 protein was detected by Western blotting with an anti-Cryj1 antibody.
FIG. 18A is a photograph showing the results of Western blotting. In FIG. 18B, “P” indicates the result of SDS-PAGE and Western blotting of the Cryj1 protein derived from a natural product as a positive control, “M” indicates a molecular weight marker, “WT” indicates the result of the leaves of Nicotiana benthamiana without gene introduction, “24° C.” indicates the result of culturing at 24° C., “20° C.” indicates the result of culturing at 20° C., and “+AsA” indicates the result of spraying a 200 mM aqueous solution of sodium ascorbate once every two days.

[7] = system: Nicotiana benthamiana; test: Observation of gangrene after adding the substance to the agroinfiltration liquid (vacuum infiltration); settings: hCu1, 25° C., seven days
Method: (§2) Sodium ascorbate was added to the agroinfiltration liquid to examine whether gangrene can be inhibited. Specifically, Nicotiana benthamiana was immersed in the agroinfiltration liquid, and vacuum infiltrated by leaving it under a pressure of 736 mmHg for 5 minutes, and then bringing the pressure back to atmospheric pressure, and thus the hCu1 protein was expressed. Here, sodium ascorbate having a final concentration of 80 mM, 100 mM, or 200 mM was added to the agroinfiltration liquid. Each plant was cultured at 25° C. for seven days after agroinfiltration.
In (a) to (c), “vacuum” indicates the results of vacuum infiltration.
as §2, with “0, 10, 20, 30,” for “80 mM, 100 mM,”, “40” for “200”, “liquid.” for “liquid. Each plant was cultured at 25° C. for seven days after agroinfiltration.”
Sodium ascorbate was administered only once at the time of agroinfiltration. […]

[8] = Example 1: spray, concentration of 100 mM or higher, once every two days, 18° C., seven days

| SMILES | cell death induced by transient protein expression ([1]; Example 5: spray 30-300 mM once every two days, 18° C., seven days) | state of the leaves ([1]; Example 5: spray, concentration of 100 mM or higher, once every two days, 18° C., seven days) | gangrene (cell death induced by transient protein expression) ([1]; Example 1: sprayed with 100, 200 and 300 mM aqueous solutions once every two days, 18° C., seven days after agroinfiltration, hCu1, hFbxw7, PLP-GFP, Cryj1 regions) | gangrene ([1]; Example 2: 200 mM spray once every two days, 25° C., seven days after agroinfiltration, GFP, hCu1, hFbxw7) | gangrene in GFP-expressing leaves ([1]; Example 2: 200 mM spray, 25° C., culturing continued for seven days after agroinfiltration) | expression level of the GFP protein [2, 8] | expression level of the Rubisco large subunit [2, 8] | GFP protein expression level ([2]; Example 2: 200 mM spray, 25° C., three, five and seven days after agroinfiltration) | expression level of the hCu1 protein [3, 8] | peak in the expression level of the hCu1 protein ([3]; Example 1: spray, concentration of 200 mM or higher, 18° C., seven days) | expression of the hCu1 protein ([3]; Example 2: 200 mM spray, 25° C., seven days after agroinfiltration) | expression level of the hCu1 protein, time of peak ([3]; Example 2: 200 mM spray, 25° C., three days after agroinfiltration) | expression of the hCu1 protein ([3]; Example 4: final concentration of 40 mM added to the agroinfiltration liquid, once, vacuum infiltration, 25° C., seven days) | expression level of the PLP-GFP protein [4] | expression of the hFbxw7 protein [5] | expression of Cryj1 protein [6] | gangrene induced by the substance ([7]; Example 3: concentration of 80 mM or higher (80, 100, 200 mM) added to the agroinfiltration liquid) | gangrene of the plant ([7]; Example 4: added to the agroinfiltration liquid (0-40 mM), once) |
| --- | --- | --- | --- | --- | --- | --- | --- | --- | --- | --- | --- | --- | --- | --- | --- | --- | --- | --- |
| O=C([O-])CC(O)(CC(=O)[O-])C(=O)[O-].[Na+].[Na+].[Na+] [sodium citrate, reference compound] | cannot inhibit cell death induced by transient protein expression | leaves were in a wilted state |  |  |  |  |  |  |  |  |  |  |  |  |  |  |  |  |
| O=C1O[C@H]([C@@H](O)CO)C([O-])=C1O.[Na+] [sodium ascorbate, sodium L-ascorbate] |  |  | gangrene was inhibited | tendency of gangrene suppression | tendency of gangrene reduction | increase in expression level of the GFP protein | increase in expression level of the Rubisco large subunit | GFP protein expression level sustenance | increase in expression level of the hCu1 protein | peak in the expression level of the hCu1 protein was observed | expression of the hCu1 protein was maintained even seven days after agroinfiltration | peak in the expression level of the hCu1 protein was observed three days after agroinfiltration | expression of the hCu1 protein similar to a case where a 200 mM aqueous solution of sodium ascorbate was sprayed | increase in expression level of the PLP-GFP protein | expression of the hFbxw7 protein was observed | expression of Cryj1 protein was observed | gangrene possibly caused by osmotic stress was induced | reduce gangrene of the plant |
